Assay results: ChEMBL document CHEMBL1153054, “Functionalized 3-amino-imidazo[1,2-a]pyridines: a novel class of drug-like Mycobacterium tuberculosis glutamine synthetase inhibitors” (Bioorg Med Chem Lett, 2009)

experiment: Inhibition of Mycobacterium tuberculosis glutamine synthetase; conditions: not given

With Oc1ccc(-c2nc3ccc(Br)cn3c2NC2CCCC2)cc1 the IC50 was “ND(Insoluble)”.

same assay, conditions: read-out: IC50

Compared with COc1ccc2nc(-c3ccc(OC)c(O)c3)c(NC3CCCC3)n2c1, COc1ccc(-c2nc3ccc(C)cn3c2NC2CCCC2)cc1O is higher in IC50: 31.3 µM for the first, greater than 50 µM for the second. The first is the more potent here.

First: COc1ccc(-c2nc3ccc(Cl)cn3c2NC2CCCC2)cc1O
Second: COc1ccc(-c2nc3ccc(F)cn3c2NC2CCCC2)cc1O
The IC50 of the first is lower: 11.2 µM for the first, greater than 50 µM for the second.

First: O=C(O)c1cccc(-c2nc3ccc(Br)cn3c2NC2CCCC2)c1
Second: Oc1cccc(-c2nc3ccc(Br)cn3c2NC2CCCC2)c1
The IC50 of the first is lower: 0.38 µM for the first, greater than 50 µM for the second.

COc1ccc(-c2nc3ccc(-c4ccccc4)cn3c2NC2CCCC2)cc1O and COc1ccc(-c2nc3ccc(-c4ccncc4)cn3c2NC2CCCC2)cc1O cannot be ordered by IC50: greater than 50 µM for the first, greater than 50 µM for the second.

OCc1cccc(-c2nc3ccc(Br)cn3c2NC2CCCC2)c1 and Nc1cccc(-c2nc3ccc(Br)cn3c2NC2CCCC2)c1 are within 1.5-fold of each other in IC50: 13.2 µM for the first, 10.1 µM for the second.

Oc1ccccc1-c1nc2ccc(Br)cn2c1NC1CCCC1 and Oc1cccc(-c2nc3ccc(Br)cn3c2NC2CCCC2)c1Cl cannot be ordered by IC50: greater than 50 µM for the first, greater than 50 µM for the second.

COc1ccc(-c2nc3ccc(Cc4ccccc4)cn3c2NC2CCCC2)cc1O and COc1ccc(-c2nc3ccc(CCc4ccccc4)cn3c2NC2CCCC2)cc1O cannot be ordered by IC50: greater than 50 µM for the first, greater than 50 µM for the second.

Compared with COc1ccc(-c2nc3c(C)cc(Br)cn3c2NC2CCCC2)cc1O, COc1ccc(-c2nc3c(Br)cc(Br)cn3c2NC2CCCC2)cc1O is higher in IC50: 12.7 µM for the first, greater than 50 µM for the second.

First: COc1ccc(-c2nc3cccc(Br)n3c2NC2CCCC2)cc1O
Second: COc1ccc(-c2nc3ccc(Br)cn3c2NC2CCCC2)cc1O
The IC50 of the first is higher: greater than 50 µM for the first, 8.8 µM for the second.

First: COc1ccc(-c2nc3ccc(C#N)cn3c2NC2CCCC2)cc1O
Second: COc1ccc(-c2nc3ccc(I)cn3c2NC2CCCC2)cc1O
The IC50 of the first is higher: greater than 50 µM for the first, 4.8 µM for the second.

COc1ccc(-c2nc3ccc(C(F)(F)F)cn3c2NC2CCCC2)cc1O and COc1cc(-c2nc3ccc(Br)cn3c2NC2CCCC2)ccc1O cannot be ordered by IC50: greater than 50 µM for the first, greater than 50 µM for the second.

Brc1ccc2nc(-c3ccccc3)c(NC3CCCC3)n2c1 and COc1cccc(-c2nc3ccc(Br)cn3c2NC2CCCC2)c1 cannot be ordered by IC50: greater than 50 µM for the first, greater than 50 µM for the second.

First: COc1ccc(-c2nc3c(Br)cccn3c2NC2CCCC2)cc1O
Second: COc1ccc(-c2nc3ccccn3c2NC2CCCC2)cc1O
The IC50 of the first is lower: 21.3 µM for the first, greater than 50 µM for the second.

COc1ccc(-c2nc3ccc(Oc4ccccc4)cn3c2NC2CCCC2)cc1O and COc1ccc(-c2nc3ccc(/C=C/c4ccccc4)cn3c2NC2CCCC2)cc1O cannot be ordered by IC50: greater than 50 µM for the first, greater than 50 µM for the second.

COc1cccc(-c2nc3ccc(Br)cn3c2NC2CCCC2)c1OC and O=[N+]([O-])c1cccc(-c2nc3ccc(Br)cn3c2NC2CCCC2)c1 cannot be ordered by IC50: greater than 50 µM for the first, greater than 50 µM for the second.

O=[N+]([O-])c1ccc(-c2nc3ccc(Br)cn3c2NC2CCCC2)cc1O and Brc1ccc2ncc(NC3CCCC3)n2c1 cannot be ordered by IC50: greater than 50 µM for the first, greater than 50 µM for the second.
